# Results from ChEMBL document CHEMBL5729309, “Substituted pyrimidines, pharmaceutical compositions and therapeutic methods thereof” (2022).
# pIC50: −log10 of the molar value.
# Experiments:
# [1] = target: T1, Cytoplasmic tyrosine-protein kinase BMX (Homo sapiens, UniProt P51813)
# T1 sequence (P51813 whole entry): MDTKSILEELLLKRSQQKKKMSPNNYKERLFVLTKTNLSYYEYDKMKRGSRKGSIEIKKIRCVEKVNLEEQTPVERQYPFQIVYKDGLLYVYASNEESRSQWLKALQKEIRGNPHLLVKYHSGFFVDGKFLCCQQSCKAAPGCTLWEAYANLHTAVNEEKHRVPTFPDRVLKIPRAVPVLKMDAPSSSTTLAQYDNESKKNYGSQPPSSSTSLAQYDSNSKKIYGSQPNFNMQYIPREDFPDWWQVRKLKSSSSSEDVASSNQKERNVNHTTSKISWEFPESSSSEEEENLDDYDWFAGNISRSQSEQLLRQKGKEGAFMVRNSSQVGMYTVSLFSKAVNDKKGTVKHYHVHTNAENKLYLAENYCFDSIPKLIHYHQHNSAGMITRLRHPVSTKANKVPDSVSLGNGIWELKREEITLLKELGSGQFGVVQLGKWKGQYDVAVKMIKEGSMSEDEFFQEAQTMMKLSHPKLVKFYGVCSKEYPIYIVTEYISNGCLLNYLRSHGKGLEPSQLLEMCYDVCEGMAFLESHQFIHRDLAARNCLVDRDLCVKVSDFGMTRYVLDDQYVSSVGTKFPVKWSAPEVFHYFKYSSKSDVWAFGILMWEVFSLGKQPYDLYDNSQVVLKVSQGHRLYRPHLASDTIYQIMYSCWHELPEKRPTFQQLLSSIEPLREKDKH
# [2] = target: Epidermal growth factor receptor (Homo sapiens, UniProt P00533)
# Chain of Epidermal growth factor receptor (P00533 whole entry): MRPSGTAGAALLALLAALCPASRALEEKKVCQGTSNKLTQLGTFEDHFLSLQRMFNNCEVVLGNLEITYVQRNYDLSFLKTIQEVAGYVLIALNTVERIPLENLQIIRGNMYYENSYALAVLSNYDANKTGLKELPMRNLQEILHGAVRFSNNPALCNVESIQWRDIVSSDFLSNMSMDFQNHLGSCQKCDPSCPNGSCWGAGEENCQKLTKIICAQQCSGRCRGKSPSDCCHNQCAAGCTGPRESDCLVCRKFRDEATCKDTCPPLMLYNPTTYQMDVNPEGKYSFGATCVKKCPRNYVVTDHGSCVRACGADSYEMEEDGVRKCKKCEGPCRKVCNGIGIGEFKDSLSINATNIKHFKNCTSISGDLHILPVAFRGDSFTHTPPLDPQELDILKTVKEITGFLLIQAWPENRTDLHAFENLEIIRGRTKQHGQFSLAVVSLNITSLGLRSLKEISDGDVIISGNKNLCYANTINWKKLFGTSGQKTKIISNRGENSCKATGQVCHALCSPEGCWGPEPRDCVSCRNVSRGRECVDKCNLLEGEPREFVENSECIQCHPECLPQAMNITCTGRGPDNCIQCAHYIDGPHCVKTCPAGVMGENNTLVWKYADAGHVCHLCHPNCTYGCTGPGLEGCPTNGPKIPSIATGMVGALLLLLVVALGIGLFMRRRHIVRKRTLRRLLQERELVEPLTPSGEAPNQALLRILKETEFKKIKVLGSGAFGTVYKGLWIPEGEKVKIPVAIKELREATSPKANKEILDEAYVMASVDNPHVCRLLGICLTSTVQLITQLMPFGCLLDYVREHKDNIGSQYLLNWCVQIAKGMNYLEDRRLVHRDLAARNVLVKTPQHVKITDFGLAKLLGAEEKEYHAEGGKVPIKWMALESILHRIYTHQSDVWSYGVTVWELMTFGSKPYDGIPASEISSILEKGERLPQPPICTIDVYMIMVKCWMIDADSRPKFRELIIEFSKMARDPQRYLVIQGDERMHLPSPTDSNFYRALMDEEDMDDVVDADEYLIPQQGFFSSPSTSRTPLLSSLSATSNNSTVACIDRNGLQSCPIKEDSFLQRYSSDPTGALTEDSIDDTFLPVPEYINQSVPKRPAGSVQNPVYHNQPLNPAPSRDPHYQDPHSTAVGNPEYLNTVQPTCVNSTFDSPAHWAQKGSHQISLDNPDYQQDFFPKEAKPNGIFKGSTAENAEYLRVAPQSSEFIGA
# Focal adhesion kinase 1 = Focal adhesion kinase 1 (Homo sapiens, UniProt Q05397)
# Chain of Focal adhesion kinase 1 (Q05397 whole entry): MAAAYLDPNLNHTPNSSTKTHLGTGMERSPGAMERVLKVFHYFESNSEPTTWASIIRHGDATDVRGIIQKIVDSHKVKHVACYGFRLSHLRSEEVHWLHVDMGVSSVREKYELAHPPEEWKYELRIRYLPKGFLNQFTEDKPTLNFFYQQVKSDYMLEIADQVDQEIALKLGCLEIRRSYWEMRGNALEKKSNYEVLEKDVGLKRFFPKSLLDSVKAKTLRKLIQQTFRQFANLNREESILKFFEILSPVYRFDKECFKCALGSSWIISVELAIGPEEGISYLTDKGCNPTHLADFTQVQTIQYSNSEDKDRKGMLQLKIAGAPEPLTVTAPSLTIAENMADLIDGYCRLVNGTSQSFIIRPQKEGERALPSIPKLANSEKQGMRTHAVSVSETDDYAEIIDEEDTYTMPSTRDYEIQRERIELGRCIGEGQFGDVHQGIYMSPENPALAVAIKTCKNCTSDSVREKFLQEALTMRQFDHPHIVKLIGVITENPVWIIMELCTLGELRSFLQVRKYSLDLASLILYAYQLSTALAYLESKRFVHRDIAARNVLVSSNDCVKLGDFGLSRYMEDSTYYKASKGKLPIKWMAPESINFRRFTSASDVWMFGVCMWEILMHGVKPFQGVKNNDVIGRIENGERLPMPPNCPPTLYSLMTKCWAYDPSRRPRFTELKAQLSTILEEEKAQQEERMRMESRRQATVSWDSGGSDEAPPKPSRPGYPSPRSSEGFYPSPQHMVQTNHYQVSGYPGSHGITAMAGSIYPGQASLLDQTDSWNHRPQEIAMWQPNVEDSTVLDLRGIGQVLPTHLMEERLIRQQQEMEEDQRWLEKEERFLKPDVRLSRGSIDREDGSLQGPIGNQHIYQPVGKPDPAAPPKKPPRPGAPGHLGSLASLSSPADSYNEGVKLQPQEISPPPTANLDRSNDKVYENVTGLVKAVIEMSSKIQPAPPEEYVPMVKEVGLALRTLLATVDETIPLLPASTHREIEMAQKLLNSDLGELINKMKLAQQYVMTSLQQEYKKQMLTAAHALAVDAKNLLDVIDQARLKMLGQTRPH
# [3] = target: T2, Tyrosine-protein kinase ITK/TSK (Homo sapiens, UniProt Q08881)
# T2 sequence (Q08881 whole entry): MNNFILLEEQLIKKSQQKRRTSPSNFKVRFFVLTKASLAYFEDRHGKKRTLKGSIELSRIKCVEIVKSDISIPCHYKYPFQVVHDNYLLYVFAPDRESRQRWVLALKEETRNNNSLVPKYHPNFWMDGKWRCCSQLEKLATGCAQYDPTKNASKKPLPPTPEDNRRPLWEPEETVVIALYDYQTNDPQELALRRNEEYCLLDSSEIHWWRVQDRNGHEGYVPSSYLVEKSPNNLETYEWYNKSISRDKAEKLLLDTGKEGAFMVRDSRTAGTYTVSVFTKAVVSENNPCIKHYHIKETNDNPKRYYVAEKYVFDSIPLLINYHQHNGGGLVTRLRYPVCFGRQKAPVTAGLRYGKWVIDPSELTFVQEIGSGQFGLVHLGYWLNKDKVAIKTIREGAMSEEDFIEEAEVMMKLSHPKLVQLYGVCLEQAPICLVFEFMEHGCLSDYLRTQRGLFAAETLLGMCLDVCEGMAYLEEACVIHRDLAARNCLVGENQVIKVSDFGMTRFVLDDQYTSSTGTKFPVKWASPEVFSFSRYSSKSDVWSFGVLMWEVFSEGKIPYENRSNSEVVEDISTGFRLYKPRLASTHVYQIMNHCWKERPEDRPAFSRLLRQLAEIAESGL
pIC50 [1],pIC50 [2],pIC50 (Focal adhesion kinase 1),pIC50 [3],Compound
> 7.00,< 7.00,< 7.00,< 7.00,C=CC(=O)N1CCC[C@@H](Nc2nc(Nc3ccc(OCCCOC4(CC)OCC(C)(C)CO4)cc3)ncc2F)C1
< 7.00,< 7.00,< 7.00,< 7.00,C=CC(=O)Nc1ccccc1Nc1nc(Nc2ccc(OCCCOC3(CC)OCC(C)(C)CO3)cc2)ncc1F
